Experimental data as given in patent publication US12576075B2, “Combination therapies for treating cancer” (Institute For Cancer Research, priority 2018, dated 2026).

Experiments:
786-O cells [1] = test: Dose-dependent anti-proliferative effects on 786-O cells (dose response); type: cell-based, human; conditions: for ED75 / ED90: single drug dose response; for EC50: Homo sapiens, 786-0, single drug dose response, read-out: ED50 (the source's name)
786-O RCC cells = test: Cell viability, […]-BLUE assay, 786-O; type: cell-based, human; set-up: dose or concentration left out as unconfirmed; conditions: 72 hours
Protocol: (§1) Treatment with lonafarnib can reinstate sensitivity of RCC cells to TKIs. Pharmacological inhibition of FTase enhances the antitumor activity of sunitinib. Referring to FIG. 3, in Panel A, PNX0010 and 786-O RCC cells were treated with various combinations of lonafarnib ([…]), sunitinib ([…]), and pazopanib ([…]) for 72 hours. Cell viability was examined using Blue […]-BLUE® assay (PROMEGA®). In Panel B, 786-O and PNX0010 RCC cells were treated with lonafarnib ([…]) and/or sunitinib ([…]) for 24 hours. DNA fragmentation was examined by the APO-BRDU kit (The Phoenix Flow Systems) followed by flow cytometry analysis.

PNX0010 RCC cells = test: Cell viability, […]-BLUE assay, PNX0010; type: cell-based, human; set-up: dose or concentration left out as unconfirmed; conditions: 72 hours
Protocol: as §1

786-O cells [2] = test: Lysosomal sequestration of sunitinib by fluorescent microscopy; type: cell-based, human; set-up: Sequestration of sunitinib within lysosomes: dose or concentration left out as unconfirmed
PNXC0010 RCC tumors = type: in vivo; conditions: PNX0010 subcutaneous xenografts, C.B17/lcrscid mice, 40 mg/kg each drug, orally 3 times/week
Protocol: PNX0010 subcutaneous xenografts were established in 6 week old male C.B17/lcrscid mice. The mice were treated orally 3 times/week with (i) 10% 2-hydroxypropyl-b-cyclodextrin in PBS (control); (ii) sunitinib (40 mg/kg); (iii) lonafarnib (40 mg/kg); or with sunitinib and lonafarnib combined (n=5 mice/group). Tumor volumes were calculated by the formula: (volume=0.52×(width)2×length).

| Structure (SMILES) | ED75 (786-O cells [1]) [µM] | ED90 (786-O cells [1]) [µM] | EC50 (786-O cells [1]) [µM] | Effect on cell viability (786-O RCC cells) | Effect on cell viability (PNX0010 RCC cells) | Sequestration of sunitinib within lysosomes (786-O cells [2]; 60 minutes) | Total cellular accumulation of sunitinib (786-O cells [2]; effect of lonafarnib, data not shown) | Growth of xenograft tumors (tumor volume) (PNXC0010 RCC tumors) |
| --- | --- | --- | --- | --- | --- | --- | --- | --- |
| CNC(=O)c1ccccc1Sc1ccc2c(/C=C/c3ccccn3)n[nH]c2c1 [Axitinib, axitinib] | 7.5 | 65.1 | – | – | – | – | – | – |
| NC(=O)N1CCC(CC(=O)N2CCC([C@H]3c4ncc(Br)cc4CCc4cc(Cl)cc(Br)c43)CC2)CC1 [Lonafarnib, lonafarnib] | 63.3 | 5672.0 | 3.8 | modest effect | modest effect | significantly reduced | not affected | moderate decrease |
| CCN(CC)CCNC(=O)c1c(C)[nH]c(/C=C2\C(=O)Nc3ccc(F)cc32)c1C [Sunitinib, sunitinib] | 6.7 | 44.3 | 2.4 | – | – | – | – | – |
